Measurements reported in a melting point compilation (Tetko et al.; mined from patent text by program, amines drawn as free bases though some values may be those of a salt).

melting point	SMILES
133 to 135 °C	CCS(=O)(=O)N(C)[C@@H]1c2cc([N+](=O)[O-])ccc2OCC[C@H]1O (relative stereo)
204 to 206 °C	CSC(=S)N/N=C/c1ccc(-c2ncn(-c3ccc(OC(F)(F)F)cc3)n2)cc1
> 200 °C	Cc1ccc(S(=O)(=O)c2cc3cnc(C)nc3nc2O)cc1
157 to 159 °C	CC(C)c1nn(-c2ccccc2)c(-c2ccc(F)cc2)c1CC[C@H]1C[C@H](O)CC(=O)O1 (relative stereo)
130 °C	NN(Cc1ccc(Cl)cc1)c1ccc(OCc2ccc3ccccc3n2)cc1
129 to 130 °C	Cc1ccc(-c2ccc3c(c2)C=C(C(=O)Nc2ccc(CN(C)C4CCOCC4)cc2)CCO3)s1
150 °C	CCCc1c(OCC(O)CSc2ccc(C(=O)CCC(=O)O)c(O)c2)ccc(C(C)=O)c1O (centres undefined)
232 to 234 °C	CC(=O)Nc1c(I)c(C(=O)OCOC(=O)C(C)(C)C)c(I)c(N(C)C(C)=O)c1I
125 to 129 °C	CCOC(=O)c1cccc2c1CCc1cc(O)ccc1S2
154 to 156 °C	CCN(C(=O)c1ccccc1C(=O)c1ccc(F)cc1)C(C)(C)CNS(=O)(=O)c1ccc(C)cc1
77.5 °C	CCOc1cc(OC)cc(OC(=O)CC)c1C(=O)C=Cc1ccc(OC)cc1
106 to 108 °C	CC(C)CCCC(C)Cc1nc2c3cc(Br)sc3c3sc(Br)cc3c2nc1CC(C)CCCC(C)C (centres undefined)
113 °C	O=C1CCc2cc(-c3cccc(Cl)c3)ccc21
206 to 208 °C	COc1cc([N+](=O)[O-])c2nccc(C)c2c1Oc1cccc(C(F)(F)F)c1
169 to 171 °C	CCOC(=O)NC(=O)c1c(Cl)ccc2c(C(F)(F)F)c(OC)ccc12
54 to 57 °C	COC(=O)CCN(C(=O)CC(O)C(=O)O)N1CCCCC1 (centres undefined)
167 to 169 °C	COC(=O)c1ccc(NC(=O)c2ccccc2C)nc1
143 to 145 °C	CN1CCc2ccc(C(=O)CCC(=O)N3CCC(c4ccc(Cl)cc4)CC3)cc2CC1
149 to 151 °C	C=C(C)Cc1cc(NC(C)=O)c(C)c(C)c1O
172 to 174 °C	COc1cccc(-c2n[nH]c3c2Cc2ccccc2-3)c1
192 to 196 °C	Cc1ccccc1C(=O)CN1C(=O)C(NC(=O)Nc2cccc(C(=O)NO)c2)CN(C(=O)C(C)(C)C)c2ccccc21 (centres undefined)
188 to 189 °C	CC(=O)c1cc(C(F)(F)F)nn1-c1ccc(NC(=O)c2cccnc2F)cc1
109 to 110 °C	C=CC(=O)N1CCC(C(=O)O)CC1
134 to 140 °C	COC(=O)c1cc(OC)c(OCc2ccccc2)cc1N=CN(C)C

melting point	SMILES
119 to 121 °C	COc1ccc(CCCC(=O)O)cc1NC(=O)C[C@H]1O[C@H](c2cccc(OC)c2OC)c2cc(Cl)ccc2N(CC(C)(C)CO)C1=O
218 to 220 °C	O=C(O)c1ccc(CN(C2CCCCC2)S(=O)(=O)c2ccc(F)cc2)cc1
166 to 167 °C	CCOc1ccc(Nc2n[nH]c(N)c2C#N)cc1
65 °C	CCOC(=O)C(=CNc1cccnc1OC)C(=O)OCC
198 to 200 °C	Cc1c(CC(=O)O)c2ccccc2c(=O)n1O
140 to 150 °C	CC(=O)N(N=Cc1c(Cl)cccc1Cl)c1nncn1N(C(C)=O)C(C)=O
276 to 278 °C	O=C1NC(=S)SC1=Cc1ccccc1C(=O)O
184 to 185 °C	O=C1C(=Cc2ccc([N+](=O)[O-])cc2)CCc2cc(OCCn3ccnc3)ccc21
254 to 255 °C	COc1ccc(CC2SC(=O)NC2=O)c2ccc(=O)n(C)c12 (centres undefined)
188 to 190 °C	COc1cc2c(Nc3ccc(Cl)cc3F)ncnc2cc1OCCOc1cccnc1
227 to 229 °C	O=C(Nc1cc(Cl)c(O)c(Cl)c1)c1cc(F)ccc1O
232 to 235 °C	Cc1nc2cc3c(cc2c(=O)[nH]1)C(N(C)c1ccc(C(=O)NC(CCc2nnnn2CC(=O)O)C(=O)O)c(F)c1)CC3 (mixture of isomers)
82 to 84 °C	COc1cc2c(cc1C=O)OCC2
129 to 132 °C	CON=Cc1cc([N+](=O)[O-])c(Cl)cc1Cl
216 to 218 °C	CNC(=S)NCCn1c(=O)ccc2c(C)cc(C)nc21
91 to 93 °C	Cc1cc(CCCCCOc2ccc(-c3cnco3)cc2)on1
193 to 196 °C	CSc1cnc(NC(=O)c2ccc(OC(C)=O)cc2)s1
199 to 200 °C	N#Cc1ccc(OCCCN2CCN(C(CC(=O)O)c3cccnc3)C(=O)C2=O)cc1 (single isomer, unassigned; (-))
154 to 156 °C	FC(F)C(Cl)=NC(c1ccccc1)(c1ccccc1)c1ccccc1
206 to 208 °C	COc1ccc(-c2nc(C(=O)O)c[nH]2)cc1OC1CCCC1
220 to 222 °C	COC(=Cc1ncn(C(c2ccccc2)(c2ccccc2)c2ccccc2)c1C)C(=O)c1cccc2ccccc12
93 to 94 °C	CCNC(=O)N(CCO)Cc1cc([N+](=O)[O-])ccc1OC
97 to 99 °C	CC1CCc2ccc(OCC(O)CNC3CCCCC3)cc2O1 (centres undefined)
166 to 168 °C	O=C(CCCN1CCOCC1)c1ccc2c(c1)Cc1cc(C(=O)CCCN3CCOCC3)ccc1-2

melting point	SMILES
156 to 157 °C	O=C(Nc1ccc(-n2nc(C(F)(F)F)cc2C(F)(F)F)cc1)c1ccncc1
106 to 107 °C	C[C@@H](n1cnc2cc(F)ccc2c1=O)[C@](O)(Cn1cncn1)c1ccc(F)cc1F
137 to 138 °C	COC(=O)c1cc(N=Nc2ccc(S(=O)(=O)Cl)cc2)ccc1O
188 to 190 °C	CSc1sc(-c2nccs2)c2c1C(=O)CCC2(C)C
65 °C	CC(=O)OCC1CCCn2c(cc3ccccc32)C1 (centres undefined)
152 to 154 °C	CC(C)N(C(=S)NC(=O)c1ccccc1)c1ccc2c(c1)OCO2
124 to 126 °C	CS(=O)(=O)N=C(Oc1ccccc1)Oc1ccccc1
164 to 171 °C	CC1(c2c[nH]cn2)CCc2ccccc21 (centres undefined)
181 to 183 °C	COC(=O)CN1CSC=C(N2C(=O)c3ccccc3C2=O)C1=O
192 to 193 °C	Cc1ccn(-c2ccc(C(=O)O)c(Cl)c2)n1
276 to 279 °C	CCOC(=O)c1cn(N)c2cc(-n3cccc3)c(F)cc2c1=O
189 to 190 °C	COc1ccccc1CNC(=O)c1oc(=O)c2ncccc2c1-c1ccc(C)cc1
46 to 48 °C	COc1ccc(C(=O)[C@H](C)NC(=O)OCc2ccccc2)cc1
115 to 117 °C	CCc1nn(CCNC(=O)c2ccccc2)c(CC)c1Cc1cc(Cl)cc(Cl)c1
> 250 °C	Cc1cc(=O)c(-c2ccc(F)cc2)c(C)[nH]1
109 to 110 °C	CCCCCCCCC(Br)C(=O)Nc1c(OC)cc(OC)cc1OC (centres undefined)
85 to 86.5 °C	C=C(C)COc1ccc(C(=O)c2ccccc2)cc1
188 to 191 °C	N#CSc1ccc(NC(=O)OCc2cccnc2)cc1
114 to 116 °C	COc1ccc(S(C)=O)cc1C(=O)O (centres undefined)
109 to 111 °C	O=C(O)C1CCCN1C(=O)COc1ccccc1 (centres undefined)
89 to 97 °C	CC1(C)CN2C(N)=NC(c3ccc(OC(F)(F)F)cc3)(c3cccc(-c4cccnc4F)c3)C2=N1 (centres undefined)
185 to 188 °C	NC(=O)NC1CCC(c2ccccc2-n2nc(C(F)(F)F)cc2C(F)(F)F)CC1 (centres undefined)
211 to 212 °C	COc1cn(-c2cc(F)c(N3CCOCC3)cc2F)nc(-c2ccnn2-c2ccccc2)c1=O
177 to 179 °C	O=C(CCc1ccccc1)Nc1cc(C(=O)NCc2ccccc2)ccn1

melting point	SMILES
126 °C	CCCCC[C@@H](CNC(=O)Nc1c(OC(C)C)c(C)nn1-c1ccccc1)c1cccc2c1OCO2
163 to 165 °C	Cc1cc2c(-c3ccccc3)c(CN)n(C)c(=O)c2cc1C
95 to 96 °C	Cc1oc(-c2ccccc2)nc1COc1ccc(CON=C(CCCCC(N)=O)c2ccccc2)cc1
127 to 128 °C	CS(=O)(=O)c1ccc(C2=C(Br)C(=O)C3(CCCC3)O2)cc1
291 to 293 °C	CC(C)NC1=NS(=O)(=O)c2c(Cl)cc(Cl)cc2N1
68 to 70 °C	Cc1cc(C)cc(C(=O)c2c(C(C)C)c(=O)[nH]c(=O)n2COCc2ccccc2)c1
204 °C	O=C1c2cccc(-n3c(=O)[nH]c4cnccc4c3=O)c2C2CC3(CCN12)OCCO3 (centres undefined)
168 to 169 °C	O=C(O)C(=O)c1ccc(OCCOc2ccc3ccccc3c2)c(F)c1
122 to 123 °C	COc1cc2ncnc(N3CCN(C(=O)Nc4ccc(CN5CCCCC5)cc4)CC3)c2cc1OC
75 to 77 °C	O=COCc1ccc2c(c1)C(C(Cl)(Cl)Cl)OC(C(Cl)(Cl)Cl)O2 (centres undefined)
105 to 106 °C	CCCCc1nn(-c2ccc(C(F)(F)F)cn2)cc1CCCOc1cc(CC(=O)O)ccc1OCC
180 °C	CC(=O)Nc1cc2c(cc1O)CCN(Cc1ccccc1)CC2c1ccccc1 (centres undefined)
190 to 191 °C	O=c1ccn(-c2cccc(C(F)(F)F)c2)nc1-c1cc(C(F)(F)F)nn1-c1ccccc1
130 to 132 °C	CCOC(=O)c1c(C)cc2nc(CO)n(-c3ccccc3C)c(=O)c2c1C
112 to 114 °C	C=CCNC(=O)C1CCc2cc(Cl)ccc2O1 (centres undefined)
159 to 160 °C	CN(C(=O)c1ccc(N)cc1)c1ccccc1N
159 to 161 °C	OCc1n[nH]c(-c2ccc(CN3CCCCCC3)s2)n1
230 to 233 °C	COCC(=O)Nc1nc2ccc([N+](=O)[O-])cc2s1
> 330 °C	CC(C)(C)Nc1nc2ccc(Cl)cc2c2nc(-c3ccco3)nn12
167 °C	NC(=O)C1COc2c(F)cccc2O1 (centres undefined)
92 to 94 °C	COc1ccc2cc(CBr)ccc2c1Br
129 to 130 °C	COc1cccc(CC(=O)O)c1OCc1cc(OC(C)C)nn1Cc1ccc2ccccc2n1

SMILES	melting point
CN1CCN=C(c2ccccc2)c2cc(C#N)ccc21	149 to 150 °C
COC(=O)c1ccc(CC(C)NCC(O)c2ccc(O)c(CO)c2)c(OC)c1 (centres undefined)	96 to 105 °C
CN(C)CC(=O)N(C)c1cccc(-c2ccnc3c(C(=O)c4ccccc4)cnn23)c1	166 to 168 °C
COP(=S)(OC)Oc1nsc(SC)n1	45 °C
CNC(=O)Nc1ccc2c(c1Cl)C(c1ccccc1F)=NCC(=O)N2C	145 to 160 °C
